Target: T1, hGPR120 (Homo sapiens, UniProt Q5NUL3)
T1 construct: expressed in transfected cells; host or cells: CHO-K1
T1 sequence (Q5NUL3 1-361): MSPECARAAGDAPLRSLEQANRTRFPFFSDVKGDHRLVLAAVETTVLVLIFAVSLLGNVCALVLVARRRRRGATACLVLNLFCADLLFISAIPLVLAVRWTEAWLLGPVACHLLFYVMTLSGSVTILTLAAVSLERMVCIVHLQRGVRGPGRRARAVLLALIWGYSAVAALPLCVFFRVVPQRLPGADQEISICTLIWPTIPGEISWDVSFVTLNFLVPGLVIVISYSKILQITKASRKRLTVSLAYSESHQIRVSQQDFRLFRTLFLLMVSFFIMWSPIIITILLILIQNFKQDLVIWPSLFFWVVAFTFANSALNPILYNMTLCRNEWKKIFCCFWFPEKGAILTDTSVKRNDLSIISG
Experiment: Measurement of activity of GPR120 agonist (cell-based calcium fluorescence assay)
Conditions: CHO-K1 cells expressing Ga16 and hGPR120, Calcium 5 dye fluorescence; activity class; read-out: EC50
Description: CHO-K1 cells expressing Ga16 and hGPR120 were dispensed into each well of a 96-well plate (3×10^4 cells/100 μl/well) and then incubated in 5% CO2, 37° C. incubator for 18 hours. Each well was treated with 100 μl of Calcium 5 dye (Molecular Devices) solution including 2% DMSO and then incubated in 5% CO2, 37° C. incubator for 1 hour. Serially diluted GPR120 agonists were prepared to a final concentration of 0.5% DMSO in a 96-well plate.
Fluorescence increased by the serially diluted GPR120 agonists is calculated as a relative percent (%) value based on the fluorescence represented by the treatment of 1% DMSO only. […] The calculation of measurement was carried out by using statistical software (Prizm).
Activity is denoted based on the following criteria: […]

Compared with `CN1CCN(c2ncccc2-c2cc(F)c(OCCCC(=O)O)c(F)c2)CC1` [Example 216, 4-[2,6-difluoro-4-[2-(4-methylpiperazin-1-yl)-3-pyridyl]phenoxy]butanoic acid], `O=C(O)CCCOc1c(F)cc(-c2cccnc2N2CCC(F)(F)C2)cc1F` [Example 215, 4-[4-[2-(3,3-difluoropyrrolidin-1-yl)-3-pyridyl]-2,6-difluoro-phenoxy]butanoic acid] is lower in EC50: greater than 20000 nM for the first, 200 to 2000 nM for the second.

`O=C(O)CCCOc1c(F)cc(-c2ccccc2CC2CCC2)cc1F` [Example 101, 4-[4-[2-(cyclobutylmethyl)phenyl]-2,6-difluoro-phenoxy]butanoic acid] and `O=C(O)CCCOc1c(F)cc(-c2ccccc2CC2CCCC2)cc1F` [Example 99, 4-[4-[2-(cyclopentylmethyl)phenyl]-2,6-difluoro-phenoxy]butanoic acid] cannot be ordered by EC50: less than 200 nM for the first, less than 200 nM for the second.

`Cc1cc(-c2cccc(OC3CCC3)n2)ccc1OCCCC(=O)O` [Example 26, 4-[4-[6-(cyclobutoxy)-2-pyridyl]-2-methyl-phenoxy]butyric acid] and `O=C(O)CCCOc1ccc(-c2cccc(OC3CCC3)n2)cc1C(F)(F)F` [Example 27, 4-[4-[6-(cyclobutoxy)-2-pyridyl]-2-(trifluoromethyl)phenoxy]butyric acid] cannot be ordered by EC50: less than 200 nM for the first, less than 200 nM for the second.

First: O=C(O)CCCOc1c(F)cc(-c2cccnc2OC2CC2)cc1F [Example 225, 4-[4-(2-cyclopropoxy-pyridin-3-yl)-2,6-difluoro-phenoxy]-butyric acid]
Second: O=C(O)CCCOc1c(F)cc(-c2cccnc2OC2CCCC2)cc1F [Example 44, 4-[4-(2-cyclopentyloxy-pyridin-3-yl)-2,6-difluoro-phenoxy]-butyric acid]
The EC50 of the first is higher: 200 to 2000 nM for the first, less than 200 nM for the second.

`O=C(O)CCCSc1c(F)cc(-c2ccccc2NCC2CC2)cc1F` [Example 162, 4-[2′-(cyclopropylmethyl-amino)-3,5-difluoro-biphenyl-4-ylsulfanyl]-butyric acid] and `CCCNc1ccccc1-c1cc(F)c(SCCCC(=O)O)c(F)c1` [Example 166, 4-(3,5-difluoro-2′-propylamino-biphenyl-4-ylsulfanyl)-butyric acid] cannot be ordered by EC50: less than 200 nM for the first, less than 200 nM for the second.

First: O=C(O)CCCSc1ccc(-c2cccc(OC3CCCC3)c2)cc1 [Example 126, 4-(3′-cyclopentyloxy-biphenyl-4-ylsulfanyl)-butyric acid]
Second: O=C(O)CCCSc1ccc(-c2cc(F)ccc2OC2CCCC2)cc1 [Example 179, 4-(2′-cyclopentyloxy-5′-fluoro-biphenyl-4-ylsulfanyl)-butyric acid]
The EC50 of the first is lower: less than 200 nM for the first, 200 to 2000 nM for the second. The first is the more potent here.

`O=C(O)CCCCCOc1c(F)cc(-c2cccnc2OC2CCC2)cc1F` [Example 271, 6-[4-[2-(cyclobutoxy)-3-pyridyl]-2,6-difluoro-phenoxy]hexanoic acid] and `O=C(O)CCCOc1c(F)cc(-c2cccnc2OC2CCOCC2)cc1F` [Example 68, 4-{2,6-difluoro-4-[2-(tetrahydro-pyran-4-yloxy)-pyridin-3-yl]-phenoxy}-butyric acid] fall in the same range of EC50: 200 to 2000 nM for the first, 200 to 2000 nM for the second.

`CC(C)Sc1cccc(-c2ccc(OCCCC(=O)O)c(F)c2)n1` [Example 5, 4-[2-fluoro-4-(6-isopropylsulfanyl-2-pyridyl)phenoxy]butyric acid] and `CC(C)Sc1ncccc1-c1ccc(OCCCC(=O)O)cc1` [Example 38, 4-[4-(2-isopropylsulfanyl-pyridin-3-yl)-phenoxy]-butyric acid] fall in the same range of EC50: 200 to 2000 nM for the first, 200 to 2000 nM for the second.

`O=C(O)CCCCOc1ccc(-c2cccnc2SC2CCCC2)cc1F` [Example 265, 5-[4-(2-cyclopentylsulfanyl-pyridin-3-yl)-2-fluoro-phenoxy]-pentanoic acid] and `O=C(O)CCCCOc1ccc(-c2cccnc2OC2CCCC2)cc1F` [Example 267, 5-[4-(2-cyclopentyloxy-pyridin-3-yl)-2-fluoro-phenoxy]-pentanoic acid] cannot be ordered by EC50: less than 200 nM for the first, less than 200 nM for the second.

`O=C(O)CCCOc1c(F)cc(-c2ccccc2NC2CCCC2)cc1F` [Example 79, 4-[4-[2-(cyclopentylamino)phenyl]-2,6-difluoro-phenoxy]butanoic acid] and `O=C(O)CCCOc1c(F)cc(-c2ccccc2OC2CCCC2)cc1F` [Example 55, 4-(2′-cyclopentyloxy-3,5-difluoro-biphenyl-4-yloxy)-butyric acid] cannot be ordered by EC50: less than 200 nM for the first, less than 200 nM for the second.

`CCCOc1cccc(-c2cc(F)c(OCCCC(=O)O)c(F)c2)n1` [Example 23, 4-[2,6-difluoro-4-(6-propoxy-2-pyridyl)phenoxy]butyric acid] and `O=C(O)CCCOc1c(F)cc(-c2cccc(OCC3CC3)n2)cc1F` [Example 24, 4-[4-[6-(cyclopropylmethoxy)-2-pyridyl]-2,6-difluoro-phenoxy]butyric acid] cannot be ordered by EC50: less than 200 nM for the first, less than 200 nM for the second.

Compared with `O=C(O)CCCCCOc1c(F)cc(-c2cccnc2SC2CCCC2)cc1F` [Example 275, 6-[4-(2-cyclopentylsulfanyl-3-pyridyl)-2,6-difluoro-phenoxy]hexanoic acid], `O=C(O)CCCOc1c(F)cc(-c2cccnc2CC2CCCC2)cc1F` [Example 108, 4-[4-[2-(cyclopentylmethyl)-3-pyridyl]-2,6-difluoro-phenoxy]butanoic acid] is lower in EC50: 200 to 2000 nM for the first, less than 200 nM for the second. The second is the more potent here.

First: CCCOc1ncccc1-c1cc(F)c(SCCCC(=O)O)c(F)c1 [Example 139, 4-[2,6-difluoro-4-(2-propoxy-pyridin-3-yl)-phenylsulfanyl]-butyric acid]
Second: CC(C)Oc1ncccc1-c1cc(F)c(SCCCCC(=O)O)c(F)c1 [Example 253, 5-[2,6-difluoro-4-(2-isopropoxy-pyridin-3-yl)-phenylsulfanyl]-pentanoic acid]
The EC50 of the first is lower: less than 200 nM for the first, 200 to 2000 nM for the second.

`O=C(O)CCCSc1ccc(-c2ccccc2NC2CCCC2)cc1F` [Example 160, 4-(2′-cyclopentylamino-3-fluoro-biphenyl-4-ylsulfanyl)-butyric acid] and `O=C(O)CCCSc1ccc(-c2ccccc2NC2CCCC2)cc1` [Example 208, 4-(2′-cyclopentylamino-biphenyl-4-ylsulfanyl)-butyric acid] cannot be ordered by EC50: less than 200 nM for the first, less than 200 nM for the second.

`O=C(O)CCCOc1c(F)cc(-c2cccc(CC3CCC3)c2)cc1F` [Example 102, 4-[4-[3-(cyclobutylmethyl)phenyl]-2,6-difluoro-phenoxy]butanoic acid] and `O=C(O)CCCOc1c(F)cc(-c2cccc(NCC3CC3)c2)cc1F` [Example 90, 4-[4-[3-(cyclopropylmethylamino)phenyl]-2,6-difluoro-phenoxy]butanoic acid] cannot be ordered by EC50: less than 200 nM for the first, less than 200 nM for the second.

`O=C(O)CC1(COc2c(F)cc(-c3cccnc3SC3CCC3)cc2F)CC1` [Example 33, 2-[1-[[4-(2-cyclobutylsulfanyl-3-pyridyl)-2,6-difluoro-phenoxy]methyl]cyclopropyl]acetic acid] and `O=C(O)CCCOc1cc(F)c(-c2cccnc2SC2CCC2)cc1F` [Example 61, 4-[4-(2-cyclobutylsulfanyl-pyridin-3-yl)-2,5-difluoro-phenoxy]-butyric acid] fall in the same range of EC50: 200 to 2000 nM for the first, 200 to 2000 nM for the second.

First: O=C(O)CCCOc1c(F)cc(-c2cccc(NCC3CC3)n2)cc1F [Example 75, 4-[4-[6-(cyclopropylmethylamino)-2-pyridyl]-2,6-difluoro-phenoxy]butanoic acid]
Second: O=C(O)CCCOc1c(F)cc(-c2cccc(NC3CCCC3)c2)cc1F [Example 80, 4-[4-[3-(cyclopentylamino)phenyl]-2,6-difluoro-phenoxy]butanoic acid]
The EC50 of the first is higher: 200 to 2000 nM for the first, less than 200 nM for the second. The second is the more potent here.

First: CCCNc1ccccc1-c1cc(F)c(OCCCC(=O)O)c(F)c1 [Example 81, 4-[2,6-difluoro-4-[2-(propylamino)phenyl]phenoxy]butanoic acid]
Second: CC(C)Nc1ncccc1-c1cc(F)c(SCCCC(=O)O)c(F)c1 [Example 250, 4-[2,6-difluoro-4-(2-isopropylamino-pyridin-3-yl)-phenylsulfanyl]-butyric acid]
The EC50 of the first is lower: less than 200 nM for the first, 200 to 2000 nM for the second. The first is the more potent here.

Compared with `O=C(O)CCCSc1ccc(-c2cccc(Oc3ccccc3)c2)cc1` [Example 125, 4-(3′-phenoxy-biphenyl-4-ylsulfanyl)-butyric acid], `O=C(O)CCCSc1ccc(-c2cccnc2OCC2CC2)cc1` [Example 124, 4-[4-(2-cyclopropylmethoxy-pyridin-3-yl)-phenylsulfanyl]-butyric acid] is higher in EC50: less than 200 nM for the first, 200 to 2000 nM for the second.

`Cc1cnc(OC2CCCC2)c(-c2ccc(SCCCC(=O)O)cc2)c1` [Example 181, 4-[4-(2-cyclopentyloxy-5-methyl-pyridin-3-yl)-phenylsulfanyl]-butyric acid] and `O=C(O)CCCOc1ccc(-c2cccc(OC3CCCC3)c2)c(F)c1F` [Example 14, 4-[4-[3-(cyclopentoxy)phenyl]-2,3-difluoro-phenoxy]butyric acid] fall in the same range of EC50: 200 to 2000 nM for the first, 200 to 2000 nM for the second.

`COc1ccc(-c2ccc(SCCCC(=O)O)c(F)c2)c(OC(C)C)c1` [Example 185, 4-(3-fluoro-2′-isopropoxy-4′-methoxy-biphenyl-4-ylsulfanyl)-butyric acid] and `CC(C)Sc1ncccc1-c1cc(F)c(SCCCC(=O)O)c(F)c1` [Example 146, 4-[2,6-difluoro-4-(2-isopropylsulfanyl-pyridin-3-yl)-phenylsulfanyl]-butyric acid] cannot be ordered by EC50: less than 200 nM for the first, less than 200 nM for the second.

From patent US10221138B2, “Biaryl derivatives as GPR120 agonists” (LG CHEM, LTD., priority 2013, dated 2019)
